Assay results taken from PubChem BioAssay (NCI).
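Method: 48-hour compound exposure of cells in 96-well plates, five concentrations, linear interpolation of endpoints. The concentration for full growth arrest is given as TGI.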

Legend:
Assay in all cases: inhibition of tumour cell growth, NCI panel, 48 h
A498 renal = tested on: A498 renal
EKVX NSCLC = tested on: EKVX NSCLC
LOX IMVI melanoma = tested on: LOX IMVI melanoma
MALME-3M melanoma = tested on: MALME-3M melanoma
MCF7 breast = tested on: MCF7 breast
MDA-MB-231 breast = tested on: MDA-MB-231 breast
MDA-MB-435 = tested on: MDA-MB-435
NCI-H23 lung = tested on: NCI-H23 lung
NCI-H460 lung = tested on: NCI-H460 lung
NCI-H522 lung = tested on: NCI-H522 lung
NCI/ADR-RES ovarian = tested on: NCI/ADR-RES ovarian
OVCAR-8 ovarian = tested on: OVCAR-8 ovarian
SF-539 CNS = tested on: SF-539 CNS
SK-OV-3 ovarian = tested on: SK-OV-3 ovarian
SNB-19 CNS = tested on: SNB-19 CNS
SNB-75 CNS = tested on: SNB-75 CNS
TK-10 renal = tested on: TK-10 renal
UACC-257 melanoma = tested on: UACC-257 melanoma

SMILES | TGI (A498 renal) | TGI (EKVX NSCLC) | TGI (LOX IMVI melanoma) | TGI (MALME-3M melanoma) | TGI (MCF7 breast) | TGI (MDA-MB-231 breast) | TGI (MDA-MB-435) | TGI (NCI-H23 lung) | TGI (NCI-H460 lung) | TGI (NCI-H522 lung) | TGI (NCI/ADR-RES ovarian) | TGI (OVCAR-8 ovarian) | TGI (SF-539 CNS) | TGI (SK-OV-3 ovarian) | TGI (SNB-19 CNS) | TGI (SNB-75 CNS) | TGI (TK-10 renal) | TGI (UACC-257 melanoma)
CC(=O)OC[C@@]1(C)[C@@H]2[C@@H]3[C@@]4(CO[C@]3(C)C(=O)[C@@]3(OC(C)=O)C[C@H](C)[C@H](OC(C)=O)[C@@H]3[C@H]4OC(C)=O)[C@H](OC(=O)c3ccccc3)C[C@@H]21 | > 100 µM | > 100 µM | > 100 µM | > 100 µM | > 100 µM | > 100 µM | > 100 µM | > 100 µM | > 100 µM | > 100 µM | > 100 µM | > 100 µM | > 100 µM | > 100 µM | > 100 µM | > 100 µM | > 100 µM | > 100 µM
COC(=O)c1ccccc1C1CN=NC12Cc1cc3c(cc1C2=O)CCC3 (configuration not stated) | > 100 µM | > 100 µM | > 100 µM | > 100 µM | > 100 µM | > 100 µM | > 100 µM | > 100 µM | > 100 µM | > 100 µM | > 100 µM | > 100 µM | > 100 µM | > 100 µM | > 100 µM | > 100 µM | > 100 µM | > 100 µM
Cn1c(=O)oc2cc(C(O)CN3CCN(Cc4ccc5c(c4)OCO5)CC3)ccc21 (configuration not stated) | > 100 µM | > 100 µM | > 100 µM | > 100 µM | > 100 µM | > 100 µM | > 100 µM | > 100 µM | > 100 µM | > 100 µM | > 100 µM | > 100 µM | > 100 µM | > 100 µM | > 100 µM | > 100 µM | > 100 µM | > 100 µM
COc1ccc(/C(=N/Nc2nc3ccccc3n2Cc2ccccc2)C(=O)O)cc1 | 44.5 µM | > 100 µM | 35.5 µM | 91.7 µM | 51.2 µM | 80.2 µM | > 100 µM | 43.3 µM | 21.4 µM | 68.8 µM | 54 µM | > 100 µM | 85.1 µM | 55 µM | > 100 µM | 81.9 µM | > 100 µM | > 100 µM
COC(=O)NCCc1[nH]nc2c1C(=O)C=C(Nc1ccccc1OC)C2=O | > 100 µM | > 100 µM | 69.9 µM | 28 µM | 38.7 µM | 94.3 µM | 30.8 µM | 32.7 µM | > 100 µM | 78.2 µM | 52.1 µM | 35.1 µM | 34.4 µM | > 100 µM | > 100 µM | > 100 µM | > 100 µM | 35.6 µM
CC(NC1=NCCO1)c1ccsc1 (configuration not stated) | > 100 µM | > 100 µM | 35 µM | 58 µM | > 100 µM | 35.6 µM | 43.1 µM | > 100 µM | 33.2 µM | 35 µM | > 100 µM | 77.7 µM | 38.2 µM | > 100 µM | > 100 µM | 47.3 µM | > 100 µM | 40.2 µM
NC(=S)NN=Cc1ccccc1OCc1cccc(COc2ccccc2C=NNC(N)=S)n1 | 47.7 µM | > 50.6 µM | > 100 µM | > 100 µM | > 100 µM | 22.3 µM | > 100 µM | > 100 µM | > 100 µM | > 100 µM | > 100 µM | > 100 µM | > 34.6 µM | 29.6 µM | 46.3 µM | 5.62 µM | 32.3 µM | > 100 µM
Cc1cc2c(cc1Cl)SC(NNC(=O)c1ccccc1)=NS2(=O)=O | > 10 µM | > 10 µM | > 10 µM | > 10 µM | 5.76 µM | > 10 µM | > 10 µM | > 10 µM | > 10 µM | > 10 µM | > 10 µM | > 10 µM | > 10 µM | > 10 µM | > 10 µM | > 10 µM | > 10 µM | > 10 µM
CN1CCOC1(C)c1ccccc1 (configuration not stated) | > 100 µM | > 100 µM | > 100 µM | > 100 µM | > 100 µM | > 100 µM | > 100 µM | > 100 µM | > 100 µM | > 100 µM | > 100 µM | > 100 µM | > 100 µM | > 100 µM | > 100 µM | > 100 µM | > 100 µM | > 100 µM
C=C(Cl)[C@](Cl)(CBr)CC[C@@H](Br)C(C)(C)Cl | 3.41 µM | 8.04 µM | 32.1 µM | 24.2 µM | 2.18 µM | 3.39 µM | 4.03 µM | 28.5 µM | 2.46 µM | 30.2 µM | 4.32 µM | 2.86 µM | 1.28 µM | 25.3 µM | 3.27 µM | 2.09 µM | 3.4 µM | 2.99 µM
Cc1cc(N(C)c2ccccc2)nc(N(C)c2ccccc2)n1 | > 100 µM | > 100 µM | 27.9 µM | 55.8 µM | 68.4 µM | 78.9 µM | > 100 µM | > 100 µM | > 100 µM | > 100 µM | > 100 µM | > 100 µM | 66.5 µM | > 100 µM | > 100 µM | > 100 µM | > 100 µM | 57.7 µM
CC(=O)OC1CCn2c1nc1c2C(=O)C=C(N2CC2)C1=O (configuration not stated) | 0.613 µM | 2.39 µM | 0.275 µM | 0.0872 µM | 0.957 µM | 3.92 µM | 1.71 µM | 1.08 µM | 5.96 µM | 0.124 µM | 1.28 µM | 1.57 µM | 0.696 µM | 6.15 µM | 10.8 µM | 0.479 µM | 0.86 µM | 1.02 µM
CC(=O)Nc1ccc2cc(C#N)c(=O)[nH]c2n1 | > 100 µM | > 100 µM | > 100 µM | > 100 µM | > 100 µM | > 100 µM | > 100 µM | > 100 µM | > 100 µM | > 100 µM | > 100 µM | > 100 µM | > 100 µM | > 100 µM | > 100 µM | > 100 µM | > 100 µM | > 100 µM
S=c1[nH]nc(COc2ccc(Cl)cc2)n1-c1ccccc1 | > 100 µM | > 100 µM | > 100 µM | > 100 µM | > 100 µM | > 100 µM | > 100 µM | > 100 µM | > 100 µM | 23.3 µM | > 100 µM | > 100 µM | > 100 µM | > 100 µM | > 100 µM | > 100 µM | > 100 µM | > 100 µM
